Results on two compounds are retold here after PMC11112612, “Sulfonylureas exert antidiabetic action on adipocytes by inhibition of PPARγ serine 273 phosphorylation” (Molecular Metabolism, 2024).

Assay [1] addresses T1, peroxisome proliferator-activated receptor γ (PPARγ) (Homo sapiens, UniProt P37231).
T1 construct: gene PPARG; recombinant PPARγ LBD
The experiment in a line: in vitro CDK5/P35 kinase assay on PPARγ LBD (ADP-Glo, phospho-Ser-273 Western blot); histone H1 phosphorylation not inhibited; PPRE luciferase in HEK293T. The class given is biochemical. In general terms: In ADP-Glo the light output rises with the ADP produced.

The target of assay [2] is T1, peroxisome proliferator-activated receptor γ (PPARγ). In words: in vitro CDK5/P35 kinase assay on PPARγ LBD (ADP-Glo, phospho-Ser-273 Western blot); histone H1 phosphorylation not inhibited; weak PPRE luciferase activation. The class given is biochemical.

The structures appear in SMILES notation. pIC50: −log10 of the molar value.

T1 sequence (P37231 231-505 limits assumed): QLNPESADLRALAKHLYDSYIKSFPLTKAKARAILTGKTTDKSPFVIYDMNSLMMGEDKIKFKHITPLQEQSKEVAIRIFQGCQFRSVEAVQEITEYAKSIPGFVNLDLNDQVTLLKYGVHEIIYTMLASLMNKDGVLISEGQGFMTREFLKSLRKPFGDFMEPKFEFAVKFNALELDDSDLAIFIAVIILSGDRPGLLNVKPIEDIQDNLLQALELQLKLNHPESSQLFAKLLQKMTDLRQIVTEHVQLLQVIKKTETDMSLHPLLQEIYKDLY
T1 sequence (Q00535 whole entry partner, the tested form may be a part): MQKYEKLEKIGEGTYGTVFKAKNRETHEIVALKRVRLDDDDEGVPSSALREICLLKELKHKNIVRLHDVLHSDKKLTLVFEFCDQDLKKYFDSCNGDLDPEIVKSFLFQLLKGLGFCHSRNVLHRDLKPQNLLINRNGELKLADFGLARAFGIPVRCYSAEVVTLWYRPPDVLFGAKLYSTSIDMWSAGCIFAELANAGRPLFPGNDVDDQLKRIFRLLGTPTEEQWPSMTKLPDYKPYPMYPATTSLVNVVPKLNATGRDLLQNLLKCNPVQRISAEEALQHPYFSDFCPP
T1 sequence (Q15078 2-307 partner): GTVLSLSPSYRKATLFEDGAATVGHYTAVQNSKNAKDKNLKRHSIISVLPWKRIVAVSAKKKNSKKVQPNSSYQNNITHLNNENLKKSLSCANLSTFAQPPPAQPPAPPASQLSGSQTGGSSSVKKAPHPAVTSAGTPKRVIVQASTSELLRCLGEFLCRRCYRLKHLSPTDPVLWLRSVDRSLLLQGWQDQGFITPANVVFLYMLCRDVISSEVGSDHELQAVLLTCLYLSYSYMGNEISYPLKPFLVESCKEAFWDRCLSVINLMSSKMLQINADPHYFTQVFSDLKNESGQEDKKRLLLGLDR

Take `COc1ccc(Cl)cc1C(=O)NCCc1ccc(S(=O)(=O)NC(=O)NC2CCCCC2)cc1` [glibenclamide]: the pIC50 (usually the negative decadic logarithm of the IC50, by convention in mol/L) in assay [1] is 7.60. `CCC1=C(C)CN(C(=O)NCCc2ccc(S(=O)(=O)NC(=O)N[C@H]3CC[C@H](C)CC3)cc2)C1=O` [glimepiride]: the pIC50 in assay [2] is 6.42.
